Laboratory results as given in ChEMBL document CHEMBL5584282, “The New Frontier in Neurotherapeutics: From Brain Stimulation to Novel Psychotropics” (ACS Med Chem Lett, 2024).
Calls of active or inactive are those of the source. The calls are words filed in the database; no cut-off is given here.

Columns and labels:
Type in all cases: functional, cell-based
Cortical neurone [1] = assay: Neuroplasticity effect in Wistar rat brain cortical neuron assessed as neurite outgrowth by measuring increase in neurite number at <=10 uM incubated for 72 hrs by DAPI staining based imaging analysis
Cortical neurone [2] = assay: Neuroplasticity effect in Wistar rat brain cortical neuron assessed as neurite outgrowth by measuring increase in neurite branching at <=10 uM incubated for 72 hrs by DAPI staining based imaging analysis
Cortical neurone [3] = assay: Neuroplasticity effect in Wistar rat brain cortical neuron assessed as neurite outgrowth by measuring increase in neurite length at <=10 uM incubated for 72 hrs by DAPI staining based imaging analysis

| Structure (SMILES) | Activity (Cortical neurone [1]) | Activity (Cortical neurone [2]) | Activity (Cortical neurone [3]) |
| --- | --- | --- | --- |
| COc1ccc2c3c(oc2c1)CCCN(C)C3 | Active | Active | Active |
| Fc1cccc2oc3c(c12)CN(CC(F)(F)F)CCC3 | Active | Active | Active |
| Fc1cccc2oc3c(c12)CCN(C1CCC1)CC3 | Active | inactive | Active |
| COc1ccc2c3c(oc2c1)CCCN(C1CCC1)C3 | Active | Active | Active |
| FC(F)(F)Oc1cccc2sc3c(c12)CCN(C1CCC1)CC3 | Active | Active | Active |
| FC(F)(F)CN1CCc2sc3ccccc3c2CC1 | inactive | Active | Active |
| Fc1ccc2c3c(oc2c1)CCCNC3 | Active | Active | Active |
| CN1CCc2oc3cccc(F)c3c2CC1 | inactive | Active | Active |
| COc1cccc2oc3c(c12)CCNCC3 | inactive | inactive | inactive |
| CN1CCCc2oc3cccc(F)c3c2C1 | Active | Active | Active |
| COc1cccc2oc3c(c12)CN(C1CCC1)CCC3 | inactive | inactive | inactive |
| Fc1cccc2oc3c(c12)CN(C1CCC1)CCC3 | Active | Active | Active |
| COc1ccc2c3c(sc2c1)CCNCC3 | Active | Active | Active |
| COc1ccc2c3c(oc2c1)CCCN(CC(F)(F)F)C3 | Active | Active | Active |
| COc1cccc2oc3c(c12)CCN(C1CCC1)CC3 | Active | Active | Active |
